Reference: patent publication US10906909B2, “Treatment of cognitive and mood symptoms in neurodegenerative and neuropsychiatric disorders with ALPHA5-containing GABAA receptor agonists” (UWM Research Foundation, Inc., priority 2016, dated 2021)
Where “and” joins values, the source holds several entries; their conditions need not be identical. Identical values can stand only once. Entries after “also recorded” stand apart in the source; their conditions may differ.

Tests used:
HEPG2 = test: Cytotoxicity assay (CellTiter-Glo), HEPG2; assay type: cell-based, human; settings: 48 hours incubation
Experimental: (§1) Human liver hepatocellular carcinoma (HEPG2) and human embryonic kidney 293 (HEK293) cell lines were purchased (ATCC) and cultured in 75 cm2 flasks (CellStar). Cells were grown in DMEM/High Glucose (Hyclone, #SH3024301) media to which non-essential amino acids (Hyclone, #SH30238.01), 10 mM HEPES (Hyclone, #SH302237.01), 5×106 units of penicillin and streptomycin (Hyclone, #SV30010), and 10% of heat inactivated fetal bovine serum (Gibco, #10082147) were added. Cells were harvested using 0.05% Trypsin (Hyclone, #SH3023601), washed with PBS, and dispensed into sterile white, optical bottom 384-well plates (NUNC, #142762). After three hours, small molecule solutions were transferred with a Tecan Freedom EVO liquid handling system equipped with a 100 nL pin tool (V&P Scientific). The controls (E)-10-(bromotriphenylphosphoranyl)decyl 4-(4-(tert-butyl)phenyl)-4-oxobut-2-enoate (400 μM in DMSO, positive control) and DMSO (negative control). The cells were incubated for 48 hours followed by the addition of CellTiter-Glo™, a luminescence-based cell viability assay (Promega, Madison, Wis.). All luminescence readings were performed on a Tecan Infinite M1000 plate reader. The assay was carried out in quadruplet with three independent runs. The data was normalized to the controls and analyzed by nonlinear regression (GraphPad Prism).

HEK293 = test: Cytotoxicity assay (CellTiter-Glo), HEK293; assay type: cell-based, human; settings: 48 hours incubation
Experimental: as §1

[1] = test system: mice subjected to chronic restraint stress (CRS); test: Y-maze alternation task, chronic restraint stress (CRS) mice; assay type: in vivo, mouse; settings: Dose 5 mg/kg
Experimental: C57/B16 mice, males and females were ordered from Jackson Laboratories at 8 weeks old and were kept in normal housing conditions (12 h light ON cycle starting at 7 am/water and food ad libitum) for one week. During this week, animals were single housed and handled to reduce the anxiety-like response toward the experimenter. To induce a working memory deficit, mice were subjected to a chronic restraint stress protocol (CRS). They were placed in a 50 ml Falcon® tube, twice a day, for 1 hour during their diurnal cycle. The time of occurrence of the stress was randomized every day to avoid predictability. CRS was not applied on testing days. Y-maze test occurred 15 hours minimum after the last stressor.
Mice were first habituated to the Y-maze apparatus and distal cues during 2 consecutive days over a 10 min free exploration session (one session per day). The next day, animals performed a training session consisting in seven successive trials separated by a 30 s inter-trial interval (ITI); during this training session, mice were familiarized with the experimental procedure (opening and closing of the doors and confinement into the goal arms). For each trial, mice remained in the start-box for a 30 s ITI. Then, the door was opened and the mouse was allowed to enter freely one of the two goal arms; the chosen arm was closed and the choice was recorded. After a 30 s confinement period into the chosen arm, the mouse was removed and brought back to the start-box for a second trial identical to the first one and this procedure was repeated over the series of trials.
The same general procedure used in the training session was implemented 24 h later, except that the ITI was lengthened to 90 s. For this experiment, animals were acutely injected i.p. with vehicle or αPAM, 30 minutes before the beginning of the test. To dissociate memory deficits from an eventual progressive loss of motivation to alternate over the series, an 8th trial was added to the series which was separated from the 7th trial by a shorter ITI (5 s). All animals failing to alternate at the 8th trial were excluded. The mean alternation rate was calculated and was expressed in percentage (number of alternation done by the animal/total number of alternation possible×100)±SEM. The percentage of alternation during the entire task is considered as an index of working memory performance (50% of being a random alternation rate). Factorial ANOVA was applied to the data to reveal differences between groups. If the ANOVA was significant for group effect (p<0.05), Scheffe post-hoc analysis were conducted to identify which groups are different from each other.
All drugs were diluted in a vehicle solution containing 85% H2O, 14% propylene glycol (Sigma Aldrich) and 1% Tween 80 (Sigma Aldrich). Working solutions were prepared at a concentration of 10 mg/mL and administered i.p. adjusted to the body weight of each animal. Doses used were either 1, 5, 10 or 20 mg/kg. For all Y maze experiments, animals were acutely injected i.p. with vehicle or αPAM, 30 minutes before the beginning of the test.

[2] = test system: Female Swiss Webster mice; test: Rotarod sensorimotor / locomotor coordination; assay type: in vivo, mouse; settings: for sensorimotor impairment on rotarod (time of fall): 40 mg/kg oral gavage, 15 rpm, 3 min, 10, 30, 60 min after dosing
Experimental: Female Swiss Webster mice (10 weeks of age) from Charles River Laboratory, WIL, MA were used for the experiments. The animals were housed under specific pathogen-free conditions, under standard conditions of humidity, temperature and a controlled 12 h light and dark cycle and had free access to food and water. The sensorimotor rotarod test was carried out 10, 30 and 60 minutes after the injection. Mice were tested on a rotarod at 15 rpm for maximum 3 min and the time of fall was recorded. Falling before the 3 minutes period of testing assesses of locomotor coordination impairment induced by the compound.
Mice (N=10/group) received a single administration via oral gavage of test compound (40 mg/kg), diazepam (5 mg/kg), or vehicle (2% polyethylene glycol, 2.5% hydroxypropylmethyl cellulose solution).

[3] = Mouse liver microsome stability assay; assay type: in vitro ADME; settings: 10 μM compound
Experimental: (§2) Human and mouse liver microsomes were obtained fom BD Gentest.
(§3) Each evaluation included six independent assays carried out three at a time, on two different days
(§4) 2. For a total volume of Microsomal Assay Mixture (MAM) 390 μL, sufficient for seven time points, combine the following
(§5) 3. Sonicate MAM for 5 min and meanwhile thaw microsomes (20 mg/mL) (BD Gentest, Cat #452156) on ice.
(§6) 4. Aliquot 100 μL of ice cold ISTD into 7 separate 1.5 mL conical vials and label them the time points for 0, 10, 20, 40, 60, 90, and 120 min.
(§7) 5. Arrange the timer. Microsomes (Final concentration of 0.5 mg/mL) should be added to all time points except the zero time point.
(§8) 6. Add 50 μL of the MAM solution to the conical vial labelled as zero time point. Place the remaining MAM solution in the incubator (37° C.) for 5 min and initiate the reaction with addition of microsomes (8.8 μL) and record the time.
(§9) 7. At the end of each time interval remove 50 μL and add 100 μL to ISTD in conical vial, sonicate for 10 sec and spin down at 10,000 rpm for 5 minutes.
(§10) 8. Take 100 μL of supernatant and transfer to Spin-X HPLC filter tubes (Corning Incorporated, Cat #8169) and centrifuge at 13,000 rpm for 5 minutes and take 5 μL from this solution and dilute in 495 μL of LCMS grade methanol (Fischer scientific, CAS #67-56-1) in an 2 mL glass auto sampler vial (Microsolv, Cat #95025-WCV) 9. The samples are analyzed by LCMS-8040. (Shimadzu)
(§11) Calculation: From the peak area, calculate the following
(§12) The compounds are tested for the metabolic stability in the Human and Mouse Liver microsomes at 10 μM concentration.

adult male Wistar rats = test: Spontaneous locomotor activity in rats; assay type: in vivo, rat; settings: 10 mg/kg i.p.; for distances traveled in 5-min intervals: 60 min recording; for overall distance traveled during 60 min (spontaneous locomotor activity): vs SOL
Experimental: (FIG. 23). […] Procedure for the assessment of locomotor activity changes induced by additional ligands in rats. […] The test was performed in the apparatus consisting of four white and opaque Plexiglas chambers (40×25×35 cm) under dim red light (20 lux). Digital camera mounted above the apparatus recorded the animal activity, which was tracked and analyzed using ANY-maze Video Tracking System software (Stoelting Co, Wood Dale, Ill., USA). […] The 10 mg/kg dose of each of ligands or SOL were applied i.p. in the 10 ml/kg volume and a single rat was immediately placed in the center of the chamber. The activity was tracked for a total of 60 min. Chambers were cleaned with diluted ethanol after every trial. Statistical analysis (one-way ANOVA and post hoc SNK tests where applicable) was performed in SigmaPlot 11 software (Systat, USA).

[4] = Human liver microsome stability assay; assay type: in vitro ADME; settings: 10 μM compound
Experimental: as §2, §3, §4, §5, §6, §7, §8, §9, §10, §11, §12

[5] = Pharmacokinetics in mice (plasma, liver, brain); settings: i.p. dosing at 3 mg/kg
rats [6] = test: Social novelty discrimination (SND); assay type: in vivo, rat; settings: 2.5 mg/kg diazepam (so in the source)
Experimental: The SND test compares the social investigation times of an adult rat with a familiar and a novel juvenile rat. Testing consisted of two consecutive juvenile presentations periods to an adult subject: period 1 (P1) and period 2 (P2). At the beginning of P1, one juvenile was placed into the adult home cage and the time spent by the adult investigating the juvenile (anogenital sniffing, licking, close pursuing and pawing) was recorded manually for 5 min. During P2, the same juvenile and a second, novel juvenile were placed in the cage together with the adult, and the times spent by the adult investigating each juvenile were measured independently for 3 min. A different pair of juvenile rats was presented to each adult tested. Manual scoring was conducted in a blinded manner. SND was deliberately impaired in control rats by the parametric manipulation applied, as there was 30 min delay between P1 and P2, and their SND was expected to be low. The influence of MP-III-022 (1, 2.5 or 10 mg/kg) on the thus induced impairment in SND was examined. There were five groups of rats which received one of the following treatments 20 min before P1: solvent, 1.5 mg/kg diazepam and 1, 2.5 and 10 mg/kg MP-III-022. The amount of time investigating familiar (Tf) and novel (Tn) juvenile during P2 was manually scored, and discrimination indexes (Tn−Tf/Tn+Tf) was calculated. Total exploration time during P1 and P2 was also manually recorded.

rats [7] = test: Morris water maze; assay type: in vivo, rat; settings: diazepam 2 mg/kg, positive control
Experimental: The potential of MP-III-022 to affect cognitive performance of rats was assessed in 2 well-validated behavioral models. First, Morris water maze experiments were performed in a 2 m diameter circular pool filled to a height of 30 cm with water at 22±1° C. The escape platform (15 cm×10 cm) was submerged 2 cm below the water surface. All experimental details were as described in Savic et al. (Int. J. Neuropsychopharmacol. 2009, 12, 1179-1193). On each of the five consecutive days rats were given one swimming block, consisting of four trials. For each trial the rat was placed in the water at one of four pseudo-randomly determined starting positions. Once the rat has found and mounted the escape platform it was permitted to remain on the platform for 15 s. […] During the acquisition phase, treatments were applied once daily before the swimming block. On the sixth day, rats were given a treatment-free probe test (60 s) without the platform. The probe test was started from the novel, most distant location. Dependent variables chosen for tracking during the acquisition trials were: escape latency (s), total distance traveled (m), path efficiency (the ratio of the shortest possible path length to actual path length), % of distance swam in the peripheral annulus and mean speed (m/s). The selected parameters in the probe test were the distance swam in the target zone […] and % of the distance swam in the peripheral annulus. We tested the effects of 1, 2.5 and 10 mg/kg MP-III-022 and 2 mg/kg diazepam as control drug. The doses of MP-III-022 were selected so that they elicit a mild, moderate and strong positive modulation of α5GABAARs, respectively, in accordance with the analysis of thorough pharmacokinetic and electrophysiological data presented in Stamenic et al. (Eur. J. Pharmacol. 2016, 791, 433-443). The data from the acquisition days in the Morris water maze were averaged for each rat (total data/total number of trials per day) and analyzed using two-way ANOVA with repeated measures (factors: Treatment and Days) with Days as the repeated measure. In the case of significant interaction, separate one-way ANOVAs were conducted to assess the influence of treatment within individual levels of factor Days. The data from the probe test were assessed using one-way ANOVA.

| SMILES | HEPG2 LD50 (HEPG2) [µM] | HEK293 LD50 (HEK293) [µM] | Alternation rate (%) [1] [%] | sensorimotor impairment on rotarod (time of fall) [2] | % left after 2 hr. (MouseLM) [3] | half-life at 10 μM ([3]; mouse, liver microsomes, read-out: Half-life (min) (MouseLM)) | distances traveled in 5-min intervals (adult male Wistar rats) | overall distance traveled during 60 min (spontaneous locomotor activity) (adult male Wistar rats) | % left after 2 hr. (Human LM) ([4]; 2 hr) [%] | half-life at 10 μM ([4]; human, liver microsomes, read-out: Half-life (min) (HumanLM)) | molar concentration range reached in mouse brain tissue [5] | time exploring the familiar and the novel juvenile rat during P2 (rats [6]) | spatial learning during acquisition in the water maze (rats [7]) | sensorimotor performance on rotarod (time of fall) ([2]; diazepam 5 mg/kg oral gavage, positive control) | Half-life (min) (MouseLM) [3] | Half-life (min) (HumanLM) [4] |
| --- | --- | --- | --- | --- | --- | --- | --- | --- | --- | --- | --- | --- | --- | --- | --- | --- |
| CNC(=O)c1ncn2c1CN=C(c1ccccc1F)c1cc(Br)ccc1-2 [RV-II-04] | >200 | >200 | 54.1 | most severe motor impairment | 73.7 ± 0.3% | 302 ± 33 | induced sedation during nearly the whole period of recording | profound sedation; also recorded: sedated when compared to all other groups | 80.2 ± 0.4 | 595 ± 157 | micromolar concentrations | – | – | – | – | – |
| CN1C(=O)CN=C(c2ccccc2)c2cc(Cl)ccc21 [diazepam, reference compound] | – | – | – | – | – | – | – | – | – | – | – | statistical trend | spatial learning incapacitation | sensorimotor steadiness at 10 minutes | – | – |
| C#Cc1ccc2c(c1)C(c1ccccc1F)=N[C@@H](C)c1c(C(=O)NC)ncn1-2 [MP-III-023, (S)-8-ethynyl-6-(2-fluorophenyl)-N,4-dimethyl-4H-benzo[f]imidazo[1,5-a][1,4]diazepine-3-carboxamide] | >200 | >200 | 62.5 | most severe motor impairment | 84.6% and 84.6 ± 0.2% | – | induced sedation during nearly the whole period of recording | profound sedation | – | – | micromolar concentrations | – | – | – | 846 ± 5 | 1790 ± 40 |
